Results published in patent publication US20130344174A1, “Bioactive Fractions and Compounds from Polygonum genus, their Use in Anti-diarrhea and the Method of Preparation” (HONG KONG BAPTIST UNIVERSITY, priority 2012, published 2013).

Assays:
Format in all cases: in vivo, ICR mice
[1] = system: castor oil-induced diarrhea in mice; assay: Castor oil-induced diarrhea in mice; details: castor oil model, FIG. 6; for inhibitory effect on diarrhea (stools rate, stools grade, diarrhea index): oral, corilagin 30 and 60 mg/kg, ellagic acid 15 and 30 mg/kg
Method: ICR mice weighing 18-22 g were purchased from the Laboratory Animal Services Center, The Chinese University of Hong Kong. The animals were fed with a rodent standard diet with free access to water, and were kept in rooms maintained at 22±1° C. with a 12 h light/dark cycle following international recommendations. All experimental protocols were approved by The Animal Ethics Committees of Hong Kong Baptist University, in accordance with “Institutional Guidelines and Animal Ordinance” (Department of Health, Hong Kong Special Administrative Region). The castor oil-induced diarrhea model, as previously described by Zhou, et al in Zhou [NT]; Hu Zhihua; Wang […]; et al (Institute of Chinese Materia Medica, China Pharmaceutical University, Nanjing); An Inquiry into Preparing Diarrhea Model of Mice and Application of Diarrhea Index[J]; Chinese Traditional and Herbal Drugs; 1994-04, was used in the present study. In brief, extracts, fractions or major components of P. chinense, and loperamide were administered orally for 5 consecutive days. On day 5, each animal was kept individually in a cage, the floor of which was lined with blotting paper, and the paper was changed every hour. 30 min after the last treatment, diarrhea was induced by oral administration of castor oil ([…]). Number of total fecal pellets and wet faeces were counted in 4 h after the administration of castor oil. The diameter of wet faeces was measured and scored in order to evaluate stool consistency as follows: 1-the diameter of wet […] than 1.0 cm; 2-the diameter of wet […] between 1.0 and 2.0 cm; 3-the diameter of wet […] between 2.0 and 3.0 cm; 4- the diameter of wet […] more than 3.0 cm. The stool rate (SR) was calculated through comparing of the number of wet faeces and total faeces, and stool grade (SG) was evaluated according to the formula: [formula] where Nwet is the number of wet faeces; N<1, N1-2, N2-3 and N>3 are the number of wet faeces whose diameter are less than 1.0 cm, between 1.0 and 2.0 cm, between 2.0 and 3.0 cm, and more than 3.0 cm, respectively. Finally, the stool severity was evaluated by the in vivo diarrheal index (DI) and expressed as follows according to the method of Zhou, et al. DI=SR×SG

[2] = system: magnesium sulphate-induced diarrhea in mice; assay: Magnesium sulphate-induced diarrhea in mice; details: magnesium sulfate model, FIG. 6; for inhibitory effect on diarrhea (stools rate, stools grade, diarrhea index): oral, corilagin 30 and 60 mg/kg, ellagic acid 15 and 30 mg/kg
Method: ICR mice weighing 18-22 g were purchased from the Laboratory Animal Services Center, The Chinese University of Hong Kong. The animals were fed with a rodent standard diet with free access to water, and were kept in rooms maintained at 22±1° C. with a 12 h light/dark cycle following international recommendations. All experimental protocols were approved by The Animal Ethics Committees of Hong Kong Baptist University, in accordance with “Institutional Guidelines and Animal Ordinance” (Department of Health, Hong Kong Special Administrative Region). A protocol for castor oil-induced diarrhea was followed. In brief, diarrhea was induced by orally administration of magnesium sulphate at the dose of 3 g/kg to the animals 30 min after pretreatment with extracts, fractions or major components of P. chinense, and loperamide. All the administrations are carried out through oral route. Stool rate (SR), stool grade (SG) and diarrheal index (DI) were all evaluated.

[3] = system: intestinal fluid secretion evoked by MgSO4 in mice; assay: Antienteropooling assay (MgSO4-evoked intestinal fluid accumulation); details: 5 days, compared to control group, FIG. 7
Method: ICR mice weighing 18-22 g were purchased from the Laboratory Animal Services Center, The Chinese University of Hong Kong. The animals were fed with a rodent standard diet with free access to water, and were kept in rooms maintained at 22±1° C. with a 12 h light/dark cycle following international recommendations. All experimental protocols were approved by The Animal Ethics Committees of Hong Kong Baptist University, in accordance with “Institutional Guidelines and Animal Ordinance” (Department of Health, Hong Kong Special Administrative Region). The experiment was conducted as previously described with a litter revision. Animals will be randomly divided into six groups. Vehicle control group received 0.5% CMC suspension (10 ml/kg, p.o.), the positive control group was administered loperamide at the dose of 2 mg/kg orally; the test groups were orally administered major principles ellagic acid at the doses of 15 and 30 mg/kg, and corilagin at the doses of 30 and 60 mg/kg, respectively. The whole treatment lasted for 5 consecutive days. Before the last treatment, the mice of all groups were fasted overnight. After one hour of the last treatment on day 5, all groups were given the diarrhea reagent (0.5 ml/mouse of a 20% aq. MgSO4, orally). They were killed 30 min later and the small intestines were collected and weighed to find out the accumulation of intestinal fluid secretion evoked by MgSO4.

[4] = system: intestinal transit of charcoal meal in mice; assay: Gastrointestinal transit test (charcoal meal); details: 5 days, FIG. 7
Method: ICR mice weighing 18-22 g were purchased from the Laboratory Animal Services Center, The Chinese University of Hong Kong. The animals were fed with a rodent standard diet with free access to water, and were kept in rooms maintained at 22±1° C. with a 12 h light/dark cycle following international recommendations. All experimental protocols were approved by The Animal Ethics Committees of Hong Kong Baptist University, in accordance with “Institutional Guidelines and Animal Ordinance” (Department of Health, Hong Kong Special Administrative Region). The experiment was conducted based on methods known in the art with a litter revision. Animals will be randomly divided into six groups. Vehicle control group received 0.5% CMC suspension (10 ml/kg, p.o.), the positive control group was administered loperamide at the dose of 2 mg/kg orally; the test groups were orally administered major principles ellagic acid at the doses of 15 and 30 mg/kg, and corilagin at the doses of 30 and 60 mg/kg, respectively. The whole treatment lasted for 5 consecutive days. Before the last treatment, the mice of all groups were fasted overnight. Five minutes later of the last treatment on day 5, 0.5 ml of a 3% suspension of deactivated charcoal in 0.5% aqueous Sodium Carboxymethyl Cellulose was administered orally to each mouse. All the mice were killed by cervical […] 30 min later and the distance travelled by the charcoal plug from pylorus to caecum was determined and expressed as a percentage of the total length of the small intestine.

[5] = 60 mg/kg oral vs loperamide 2 mg/kg
[6] = 30 mg/kg oral vs loperamide 2 mg/kg

Compound | anti-diarrheal activity compared to loperamide [1, 5] | inhibitory effect on diarrhea (stools rate, stools grade, diarrhea index) [1] | anti-diarrheal activity compared to loperamide [2, 5] | inhibitory effect on diarrhea (stools rate, stools grade, diarrhea index) [2] | intestinal fluid volume (pylorus to caecum) ([3]; 30 mg/kg oral) | intestinal fluid volume (pylorus to caecum) ([3]; 60 mg/kg oral) | intestinal transit of charcoal meal ([4]; 15 mg/kg oral) | intestinal transit of charcoal meal ([4]; 30 mg/kg oral) | anti-diarrheal activity compared to loperamide [1, 6] | anti-diarrheal activity compared to loperamide [2, 6] | intestinal fluid volume (pylorus to caecum) ([3]; 15 mg/kg oral)
O=C(O[C@@H]1O[C@@H]2COC(=O)c3cc(O)c(O)c(O)c3-c3c(cc(O)c(O)c3O)C(=O)O[C@H]([C@H]1O)[C@@H]2O)c1cc(O)c(O)c(O)c1 [corilagin] | comparable anti-diarrheal activities as loperamide | significantly inhibitory effects | comparable anti-diarrheal activities as loperamide | significantly inhibitory effects | significantly reduced | significantly reduced | significantly delay | significantly delay |  |  | 
O=c1oc2c(O)c(O)cc3c(=O)oc4c(O)c(O)cc1c4c23 [ellagic acid] |  | significantly inhibitory effects |  | significantly inhibitory effects | significantly reduced |  |  | significantly delay | comparable anti-diarrheal activities as loperamide | comparable anti-diarrheal activities as loperamide | significantly reduced
